The test system of data set [1] is PCNA (proliferating cell nuclear antigen). The data set is described as follows: PCNA expression in liver after partial hepatectomy (Western blotting). In kind it is in vivo, rat. The conditions noted are these: for PCNA expression, increase compared with tap water group: 1% betaine from 2 weeks before hepatectomy; for PCNA expression compared with tap water group: 1% betaine in drinking water after hepatectomy. The procedure:
(§1) Male Sprague Dawley rats were purchased from Central Lab. Animal Inc., Korea. Test animals were adapted to an animal facility where temperature was maintained at 22±2° C., humidity at 55±5%, and artificial illumination was provided for 12 hours a day, at least for a week before being used in the experiment. The rats weighed 230-260 g at the time when partial hepatectomy was performed. Filtered tap water and solid regular rat chow were provided freely. For the animal group that was supposed to be treated with betaine, betaine purchased from Sigma, USA, was dissolved in filtered tap water at the concentration of 1% and provided to the group as drinking water. Betaine was administered after partial hepatectomy was conducted. In some experiments, betaine containing drinking water was provided to the animal group from 2 weeks before partial hepatectomy to increase the effect of betaine.
(§2) Partial hepatectomy was performed according to the method originally introduced by Higgins and Anderson (Arch Path, 12; 186, 1931). The rat was anesthetized lightly with ether, and then the middle line of abdomen was incised approximately 3 cm. First, the skin was cut and then abdominal muscle was incised carefully not to damage internal organs. The incised upper part was lifted up by using a pincette to cut the connective tissues connected with diaphragm supporting liver tissue using scissors. Light pressure was applied to the surrounding area of the incision line to expose median lobe and left lateral lobe taking about 70 volume % of the total hepatic lobes. Connective tissues of each hepatic lobe were carefully removed and tied with suture to close the blood vessel, followed by elimination of the exposed hepatic lobe. Muscles and skin of the incised area were stitched up with suture. The incised area was sterilized with 70% ethyl alcohol to prevent infection. For the control group, abdominal incision was simply performed and then stitched up (Sham).
(§3) Cytosolic fraction was prepared from the excised liver using the standard method. The protein of cytosol was separated by SDS-PAGE, followed by electroblotting, and then transferred to nitrocellulose membrane. The membrane was treated with PBS-T buffer containing 5% nonfat milk at 4° C. for overnight. The nitrocellulose membrane was reacted with the primary antibody diluted with 5% bovine serum albumin. The primary antibodies used herein were mouse monoclonal anti-cyclin D1 serum (Santa Cruz Biotechnology, CA, U.S.A.) and rabbit polyclonal anti-human PCNA (Santa Cruz Biotechnology, CA, U.S.A.). After washing twice with PBS-T, the membrane was treated with the secondary antibody horseradish peroxidase-conjugated goat anti-rabbit IgG (Pierce Biotechnology, Rockford, Ill., U.S.A.). […]

Data set [2] deals with resected liver. As to the kind of experiment: Liver weight increase in the rat after 2/3 partial hepatectomy or sham laparotomy. The format is in vivo, Male Sprague Dawley rats. The procedure:
Male Sprague Dawley rats were purchased from Central Lab. Animal Inc., Korea. Test animals were adapted to an animal facility where temperature was maintained at 22±2° C., humidity at 55±5%, and artificial illumination was provided for 12 hours a day, at least for a week before being used in the experiment. The rats weighed 230-260 g at the time when partial hepatectomy was performed. Filtered tap water and solid regular rat chow were provided freely. For the animal group that was supposed to be treated with betaine, betaine purchased from Sigma, USA, was dissolved in filtered tap water at the concentration of 1% and provided to the group as drinking water. Betaine was administered after partial hepatectomy was conducted. In some experiments, betaine containing drinking water was provided to the animal group from 2 weeks before partial hepatectomy to increase the effect of betaine. Partial hepatectomy was performed according to the method originally introduced by Higgins and Anderson (Arch Path, 12; 186, 1931). The rat was anesthetized lightly with ether, and then the middle line of abdomen was incised approximately 3 cm. First, the skin was cut and then abdominal muscle was incised carefully not to damage internal organs. The incised upper part was lifted up by using a pincette to cut the connective tissues connected with diaphragm supporting liver tissue using scissors. Light pressure was applied to the surrounding area of the incision line to expose median lobe and left lateral lobe taking about 70 volume % of the total hepatic lobes. Connective tissues of each hepatic lobe were carefully removed and tied with suture to close the blood vessel, followed by elimination of the exposed hepatic lobe. Muscles and skin of the incised area were stitched up with suture. The incised area was sterilized with 70% ethyl alcohol to prevent infection. For the control group, abdominal incision was simply performed and then stitched up (Sham). Male rats were randomly divided into 4 groups of 4 rats each. Group 1, the control group, had laparotomy alone without damaging internal organs and then the opening was sealed (Sham group). Group 2 was treated with betaine after laparotomy (Sham+Betaine group). Group 3 had two-thirds (⅔) partial hepatectomy (PH group), and Group 4 was treated with betaine after ⅔ partial hepatectomy (PH+Betaine group). For the administration of betaine to the groups that had laparotomy only or partial hepatectomy, 1% betaine solution was provided as drinking water. For other groups, filtered tap water was provided as drinking water. In Table 1, the values on day 0 indicate the relative liver weight (liver/weight percentage) in the normal rats not having the surgery. Each group was composed of 4 rats except that 8 rats were used for the calculation for day 0 values. Value is mean±standard deviation. * Statistically significant difference between the group treated with betaine and the group without betaine treatment (Student's t-test, P<0.05). […] SH: Sham, PH: Partial hepatectomy. The number in parenthesis indicates % to the SH group.

Data set [3] concerns cyclin D1. The data set is described as follows: Cyclin D1 expression in liver after partial hepatectomy (Western blotting). In kind it is in vivo, rat. As for the experimental part:
as §1, §2, §3
In general terms: A western blot detects proteins with antibodies after separation by electrophoresis.

A short description of data set [4]: Serum hepatotoxic parameters (AST, ALT) in rats after hepatectomy. The conditions noted are these: for ALT / AST: serum, end of experiment. The format is in vivo, Male Sprague Dawley rats. The procedure:
as §1, §2
Alanine aminotransferase (ALT) activity and aspartate aminotransferase (AST) activity were measured by the method of Reitman and Frankel (Amer J Clin Pathol 28; 56, 1957) using spectrophotometer. ALT, AST substrate solutions and an aliquot of serum were added to a test tube, followed by incubation at 37° C. Upon completion of the reaction, the color developing agent and 0.4 N NaOH were added thereto, followed by measurement of absorptivities at 520 nm. The activity of each enzyme was calculated based on the standard calibration curve generated by using pyruvate as a substrate.
Male rats were randomly divided into 4 groups of 4 rats each. Group 1, the control group, had laparotomy alone without damaging internal organs and then the opening was sealed (Sham group). Group 2 was treated with betaine after laparotomy (Sham+Betaine group). Group 3 had two-thirds (⅔) partial hepatectomy (PH group), and Group 4 was treated with betaine after ⅔ partial hepatectomy (PH+Betaine group). For the administration of betaine to the groups that had laparotomy only or partial hepatectomy, 1% betaine solution was provided as drinking water. For other groups, filtered tap water was provided as drinking water.
At the end of the experiment, hepatotoxic parameters in serum were measured.
In Table 2, each group was composed of 4 rats. Value is mean±standard deviation. Statistically significant difference was not shown between different groups (Oneway ANOVA followed by Neuman Keul Multiple range test, P>0.05).

The mark [5] stands for this setting: 2/3 partial hepatectomy + 1% betaine in drinking water after surgery, day 7.
Where [6] appears, read: Sham + 1% betaine in drinking water.
Setting [7] is: partial hepatectomy + 1% betaine in drinking water.

Consider one compound from patent US20140080907A1, “LIVER REGENERATION ACCELERATOR COMPRISING BETAINE” (SNU R&DB FOUNDATION, priority 2009, published 2014).

Marks after values point to notes of the source that are not given here.

Consider `C[N+](C)(C)CC(=O)[O-]` [Betaine, trimethylglycine], for which the “PCNA expression, increase compared with tap water group” value stood at 190% in data set [1] (24 hours after hepatectomy (FIG. 1b)) and 150% in data set [1] (48 hours after hepatectomy (FIG. 1b)). Moreover, the “PCNA expression compared with tap water group” value in data set [1] (24 hours (FIG. 1a)) and in data set [1] (48 hours (FIG. 1a)) was “significantly increased” each time. The “relative liver weight (liver/weight percentage)” value in data set [2] (2/3 partial hepatectomy + 1% betaine in drinking water after surgery, day 1) is listed as 1.47 ± 0.05%; in data set [2] (2/3 partial hepatectomy + 1% betaine in drinking water after surgery, day 2), 1.98 ± 0.05* %; in data set [2] (setting [5]), 3.17 ± 0.06*, a %; in data set [2] (Sham (laparotomy only) + 1% betaine in drinking water, day 7), 3.30 ± 0.10a %; in data set [2] (Sham (laparotomy only) + 1% betaine in drinking water, day 7, listed as betaine), “did not affect the relative liver weight”. Besides, the “relative liver weight, % to the SH group” value in data set [2] (setting [5]) is “(94%)”; in data set [2] (2/3 partial hepatectomy + 1% betaine in drinking water after surgery, day 7, listed as betaine), 94%; in data set [2] (Sham + 1% betaine in drinking water, day 7), “(98%)”. In addition, the “cyclin D1 expression, higher than tap water group” value in data set [3] (betaine from 2 weeks before hepatectomy, 12th hour after hepatectomy (FIG. 2)) was found to be 50%. Further, the “cyclin D1 expression compared with tap water group” value is reported as “remained elevated” in data set [3] (betaine from 2 weeks before hepatectomy, 24 hours after hepatectomy (FIG. 2)); “difference between the two groups disappeared” in data set [3] (betaine from 2 weeks before hepatectomy, 48 hours after hepatectomy (FIG. 2)); “no significant difference” in data set [3] (normal rats without hepatectomy, betaine in drinking water, 0 hour (FIG. 2)). Also, in data set [4] (1% betaine in drinking water, sham or hepatectomized rats), the “effect on serum AST and ALT activities” value was “did not affect serum AST and ALT activities”. For the same compound, the ALT came out at 22 ± 2 units/ml in data set [4] (setting [6]) and 27 ± 2 units/ml in data set [4] (setting [7]). Further, the AST in data set [4] (setting [6]) came out at 83 ± 3 units/ml; in data set [4] (setting [7]) it was 78 ± 11 units/ml.
